Results: PMC7721796, “Molecular basis of regio- and stereo-specificity in biosynthesis of bacterial heterodimeric diketopiperazines” (Nature Communications, 2020)
Positions count from the first letter of the chain named.

How the values were obtained:
[1] = biological target: T1, NasbB (Streptomyces sp., UniProt A0A7T3QX21); format: biochemical; details: […] substrate, […] P450, spinach Fd/FdR, NADPH recycling, pH […] °C, […] h; product NAS-B
T1 construct: codon-optimised gene in pMS1, Mycobacterium smegmatis mc2 155
T1 sequence (A0A7T3QX21 1-422): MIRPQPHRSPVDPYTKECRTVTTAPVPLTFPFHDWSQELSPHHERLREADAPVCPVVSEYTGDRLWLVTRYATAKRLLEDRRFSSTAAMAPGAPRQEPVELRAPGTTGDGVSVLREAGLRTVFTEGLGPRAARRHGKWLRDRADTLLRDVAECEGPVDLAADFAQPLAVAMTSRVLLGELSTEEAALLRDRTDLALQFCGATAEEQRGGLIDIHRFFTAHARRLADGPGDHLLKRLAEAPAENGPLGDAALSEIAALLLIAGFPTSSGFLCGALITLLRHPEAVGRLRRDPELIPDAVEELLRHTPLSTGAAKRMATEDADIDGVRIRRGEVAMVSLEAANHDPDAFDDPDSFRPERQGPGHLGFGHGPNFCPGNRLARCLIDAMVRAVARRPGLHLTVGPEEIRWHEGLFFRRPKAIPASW

[2] = biological target: T2, NasF5053 (NascF5053) (Streptomyces sp. NRRL F-5053, UniProt A0A8I3B027); assay: UV-Vis difference spectra, Soret shift, hyperbolic fit; details: read-out: binding constant
T2 construct: codon-optimised gene in pET28a, E. coli BL21(DE3); heme protein

[3] = biological target: T3, NasF5053 (NascF5053) (Streptomyces sp. NRRL F-5053, UniProt A0A8I3B027, A86G/Q65I); assay: as above; details: read-out: binding constant
T3 construct: codon-optimised gene in pET28a, E. coli BL21(DE3); heme protein
T3 sequence (A0A8I3B027 1-398 Q65I/A86G): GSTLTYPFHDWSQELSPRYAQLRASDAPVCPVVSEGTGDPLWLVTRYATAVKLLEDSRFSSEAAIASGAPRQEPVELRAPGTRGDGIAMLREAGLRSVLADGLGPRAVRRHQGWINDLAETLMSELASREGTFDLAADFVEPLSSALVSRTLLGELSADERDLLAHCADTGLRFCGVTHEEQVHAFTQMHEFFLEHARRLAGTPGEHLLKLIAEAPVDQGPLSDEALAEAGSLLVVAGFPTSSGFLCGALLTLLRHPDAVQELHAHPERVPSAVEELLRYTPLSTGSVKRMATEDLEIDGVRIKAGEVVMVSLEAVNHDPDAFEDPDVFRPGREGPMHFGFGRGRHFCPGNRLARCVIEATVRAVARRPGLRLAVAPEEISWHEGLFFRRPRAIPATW

[4] = biological target: T4, NasF5053 (NascF5053) (Streptomyces sp. NRRL F-5053, UniProt A0A8I3B027, S284A/V288A); assay: as above; details: read-out: binding constant
T4 construct: codon-optimised gene in pET28a, E. coli BL21(DE3); heme protein
T4 sequence (A0A8I3B027 1-398 S284A/V288A): T3 sequence (A0A8I3B027 1-398 Q65I/A86G) with I65Q, G86A, S284A, V288A

[5] = biological target: T5, NasS1868 (Streptomyces sp. NRRL S-1868, UniProt A0ACD6BAV5); assay: product formation by UHPLC-MS; format: biochemical; details: 1 mM substrate, 0.1 µM P450, spinach Fd/FdR, NADPH recycling, pH 7.5, 4 °C, 24 h; product aspergilazine A
T5 construct: codon-optimised gene in pMS1, Mycobacterium smegmatis mc2 155
T5 sequence (A0ACD6BAV5 1-401): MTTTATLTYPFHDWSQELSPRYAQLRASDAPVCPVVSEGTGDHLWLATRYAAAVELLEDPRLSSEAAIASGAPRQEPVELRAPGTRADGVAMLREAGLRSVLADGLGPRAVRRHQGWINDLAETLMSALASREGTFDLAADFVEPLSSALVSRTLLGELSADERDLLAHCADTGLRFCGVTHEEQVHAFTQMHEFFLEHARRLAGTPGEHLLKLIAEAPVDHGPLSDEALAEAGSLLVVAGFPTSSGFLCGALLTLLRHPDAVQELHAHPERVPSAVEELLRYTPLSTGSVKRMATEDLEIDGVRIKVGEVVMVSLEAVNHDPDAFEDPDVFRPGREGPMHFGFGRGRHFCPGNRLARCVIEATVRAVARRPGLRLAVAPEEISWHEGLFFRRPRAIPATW

T2 sequence (A0A8I3B027 entry or part of it): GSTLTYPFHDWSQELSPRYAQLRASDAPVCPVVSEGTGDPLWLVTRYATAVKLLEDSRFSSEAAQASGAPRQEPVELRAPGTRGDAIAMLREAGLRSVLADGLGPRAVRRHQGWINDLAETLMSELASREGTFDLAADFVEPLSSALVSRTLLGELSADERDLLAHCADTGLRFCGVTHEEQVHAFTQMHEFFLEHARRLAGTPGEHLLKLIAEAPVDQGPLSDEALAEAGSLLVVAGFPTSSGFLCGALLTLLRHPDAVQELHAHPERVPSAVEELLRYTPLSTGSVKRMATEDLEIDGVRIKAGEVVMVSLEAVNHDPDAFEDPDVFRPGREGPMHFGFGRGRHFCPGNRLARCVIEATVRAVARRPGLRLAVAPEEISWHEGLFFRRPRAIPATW

Compound: O=C1N[C@@H](Cc2c[nH]c3ccccc23)C(=O)N2CCC[C@@H]12 [cWL-PL]
- product formation by UHPLC-MS [1]: NasbB was confirmed to efficiently dimerize the cWL-PL into NAS-B
- Kd [2]: 11.6 ± 2.1 µM
- Kd [3]: 25.6 ± 1 µM
- Kd [4]: 4.81 ± 0.26 µM
- product formation by UHPLC-MS [5]: NasS1868 can convert cWL-PL into Asp-A
